# Results reported in patent US20090105245A1, “METHODS FOR TREATING MACULAR EDEMA AND OCULAR ANGIOGENESIS USING AN ANTI-INFLAMMATORY AGENT AND A RECEPTOR TYROSINE KINASE INHIBITOR” (priority 2006, published 2009).
# Entries after “also recorded” stand apart in the source; their conditions may differ.
# B1: ranibizumab (antibody, chains of the INN, looked up, V domains shown)
# VH: EVQLVESGGGLVQPGGSLRLSCAASGYDFTHYGMNWVRQAPGKGLEWVGWINTYTGEPTYAADFKRRFTFSLDTSKSTAYLQMNSLRAEDTAVYYCAKYPYYYGTSHWYFDVWGQGTLVTVSS
# VL: DIQLTQSPSSLSASVGDRVTITCSASQDISNYLNWYQQKPGKAPKVLIYFTSSLHSGVPSRFSGSGSGTDFTLTISSLQPEDFATYYCQQYSTVPWTFGQGTKVEIK
# modifications: Fab
# Legend:
# [1] = system: laser-induced choroidal neovascularization in the mouse; test: Mouse laser-induced CNV, topical NSAID drops; format: in vivo; settings: for CNV lesions at Bruch's membrane rupture sites vs vehicle: follow-up experiment
# Description: METHODS: Choroidal neovascularization was generated by modification of a previously described technique [Tobe, 1998 #448]. Briefly, 4 to 5 week old female C57BL/6J mice were anesthetized with ketamine hydrochloride (100 mg/kg body weight) and the pupils were dilated with 1% tropicamide. Three burns of 532 nm diode laser photocoagulation (75 μm spot size, 0.1 seconds duration, 120 mW) were delivered to each retina using the slit lamp delivery system of an OcuLight GL Photocoagulator (Iridex, Mountain View, Calif.) and a hand held cover slide as a contact lens. Burns were performed in the 9, 12, and 3 o'clock positions of the posterior pole of the retina. Production of a bubble at the time of laser, which indicates rupture of Bruch's membrane, is an important factor in obtaining CNV [Tobe, 1998 #448], so only burns in which a bubble was produced were included in the study. […] In some experiments, both eyes were treated with drug and these mice were compared to littermates in which both eyes were treated with vehicle. In other experiments, one eye was treated with drug and the fellow eye was treated with vehicle. Eyes were rapidly dissected for choroidal flat mounts or frozen in optimum cutting temperature embedding compound (OCT; Miles Diagnostics, Elkhart, Ind.).
# The sizes of CNV lesions were measured in choroidal flat mounts (Edelman and Castro, 2000). Mice used for the flat mount technique were anesthetized and perfused with 1 ml of phosphate-buffered saline containing 50 mg/ml of fluorescein-labeled dextran (2×10^6 average mw, Sigma, St. Louis, Mo.) as previously described (Tobe et al., 1998a). The eyes were removed and fixed for 1 hour in 10% phosphate-buffered formalin. The cornea and lens were removed and the entire retina was carefully dissected from the eyecup. Radial cuts (4-7, average 5) were made from the edge to the equator and the eyecup was flat mounted in Aquamount with the sclera facing down. Flat mounts were examined by fluorescence microscopy on an Axioskop microscope (Zeiss, Thornwood, N.Y.) and images were digitized using a 3 color CCD video camera (IK-TU40A, Toshiba, Tokyo, Japan) and a frame grabber. Image-Pro Plus software (Media Cybernetics, Silver Spring, Md.) was used to measure the total area of hyperfluorescence associated with each burn, corresponding to the total fibrovascular scar. The areas within each eye were averaged to give one experimental value per eye for plotting the areas in the figures.
# In some mice, the eyes were rapidly removed and frozen in optimum cutting temperature embedding compound (OCT; Miles Diagnostics, Elkhart, Ind.). Ten μm frozen sections were cut through entire lesions and the sections were histochemically stained with biotinylated Griffonia simplicifolia lectin B4 (GSA, Vector Laboratories, Burlingame, Calif.) which selectively binds to vascular cells. Slides were incubated in methanol/H2O2 for 10 minutes at 4° C., washed with 0.05 M Tris-buffered saline, pH 7.6 (TBS), and incubated for 30 minutes in 10% normal porcine serum. Slides were incubated 2 hours at room temperature with biotinylated GSA and after rinsing with 0.05M TBS, they were incubated with avidin coupled to peroxidase (Vector Laboratories) for 45 minutes at room temperature. The slides were developed with HistoMark Red (Kirkegaard and Perry, Cabin John, Md.) to give a red reaction product and counter stained with Contrast Blue (Kirkegaard and Perry).
# VEGF mRNA = test: Semi-quantitative RT-PCR of retinal VEGF mRNA in mice with ischemic retinopathy; format: in vivo, mouse; settings: P12-P17
# Description: Mice with ischemic retinopathy were treated with 0.1% or 0.5% Nepafenac drops or vehicle drops four times a day between P12 and P17 and then sacrificed and retinal RNA was isolated using the guanidine isothiocyanate method as described by Chomczynski and Sacchi [Chomczynski, 1987 #30]. Reverse transcription was carried out with 0.5 μg of total RNA, reverse transcriptase (SuperScript II, Life Technologies, Gaithersburg, Md.), and 5.0 μM oligo d(T) primer. Aliquots of the cDNAs were used for PCR amplification with primers specific for VEGF, (5′-TTACTGCTGTACCTCCACC-3′) and (5′-ACAGGACGGCTTGAAGATG-3′). Titrations were performed to insure that PCR reactions were carried out in the linear range of amplification. Mouse S16 ribosomal protein primers (5′-[…]-3′ and 5′-[…]-3′) were used to provide an internal control for the amount of template in the PCR reactions.
# [2] = system: preretinal neovascularization in the mouse model of oxygen-induced retinopathy; test: Mouse model of oxygen-induced ischemic retinopathy, topical drops; format: in vivo; settings: for retinal (preretinal) neovascularization vs vehicle: P12-P17
# Description: METHODS: Ischemic retinopathy was produced in C57BL/6J mice by a method described by Smith et al [Smith, 1994 #50]. Seven-day-old (P7) mice and their mothers were placed in an airtight incubator and exposed to an atmosphere of 75±3% oxygen for 5 days. Incubator temperature was maintained at 23±2° C., and oxygen was measured every 8 hours with an oxygen analyzer. After 5 days, the mice were removed from the incubator, placed in room air, and drug treatment was begun. Mice were given one drop four times a day in masked fashion. At P17, after 5 days of treatment, mice were sacrificed, eyes were rapidly removed and frozen in OCT.
# Ocular frozen sections (10 μm) were histochemically stained with GSA as described above except that diaminobenzidine was used to give a brown reaction product. Slides were counterstained with eosin, which stains the internal limiting membrane and mounted with Cytoseal. To perform quantitative assessments, 10 μm serial sections were cut through the entire eye starting with sections that included the iris root on one side of the eye and proceeding to the iris root on the other side. Every tenth section, roughly 100 μm apart, were stained with GSA, examined with an Axioskop microscope, and images were digitized using a 3 CCD color video camera and a frame grabber. Image-Pro Plus software was used to delineate GSA-stained cells on the surface of the retina and their area was measured. For plotting the area measurements for the figure, the mean of the measurements from each eye was used as a single experimental value.
# [3] = system: retinal vasculature and neuronal function in the STZ-diabetic rat; test: STZ-diabetic rat, topical eyedrops for 2 months or 9 months; format: in vivo
# Description: Methods. Streptozotocin (STZ)-induced diabetic rats were assigned to 3 groups (untreated control, Nepafenac eyedrops, and vehicle eyedrops) for comparison to nondiabetic controls. Eyedrops were administered in both eyes 4 times/day using both subacute (2 mos) or chronic dosing paradigms (9 mos). During the 2 month study, prostaglandin E2 (PGE2), cyclooxygenase (COX)-2, and VEGF were measured by immunoassay, superoxide generation was measured by bioluminescence, activities of caspases 3 and 6 were measured fluorimetrically, and nitric oxide (NO) was estimated from levels of nitrite plus nitrate. Moreover, retinal leukostasis was quantified after intravenous perfusion with FITC-concanavalin A. During the 9-month study, vascular lesions associated with diabetic retinopathy were quantitated after isolation of the retinal vasculature by the trypsin digest technique, and loss of cells in the ganglion cell layer was evaluated in retinal cross-sections. In the chronic dosing study, retinal function also was assessed by measuring electroretinograms (ERGs) under dark and light adapted conditions to evaluate rod and cone pathways, respectively. The impact of topical ocular administration on corneal protease activity was assessed with MMP mRNA analysis and zymography. The signals were imported into Matlab™ (Mathworks Inc.) for further processing and the oscillatory potentials (OP's) were isolated using a 9 pole Butterworth filter with 34 Hz cutoff frequency (unity gain above 40 Hz and >12 dB attenuation 0 to 30 Hz). To simplify the analysis of OP timing the summed latency was calculated for OP's 1-4 similar to Hancock and Kraft, where TTP=(t1+t2+t3+t4) and tx=the time to peak of OPx.
# visual acuity = settings: Phase III, at 24 months, up to; cited from earlier work
# [4] = 0.1% drops 4 times a day for 14 days
# [5] = eyedrops 4 times/day, 2 months of diabetes
molecule,measurement,setting,value
O=C(O)Cc1ccccc1Nc1c(Cl)cccc1Cl [diclofenac],CNV lesions at Bruch's membrane rupture sites vs vehicle,[1]; [4],no difference from vehicle-treated eyes
O=C(c1ccccc1)c1ccc2n1CCC2C(=O)O (centres unmarked) [ketorolac tromethamine],size of CNV lesions vs vehicle,[1]; 0.5% drops 4 times a day for 1 week,no difference in the size of CNV lesions between the two groups
same,survival,[1]; 0.5% drops or vehicle 4 times a day for 1 week,All mice survived
same,CNV vs vehicle in surviving mice,"[1]; 0.5% drops, 2 weeks, numbers insufficient for statistics",did not appear to have less CNV than mice treated with vehicle
same,mortality,"[1]; 0.5% drops, two weeks",high mortality
"NC(=O)Cc1cccc(C(=O)c2ccccc2)c1N [nepafenac, 2-Amino-3-benzoyl-phenylacetamide]",retinal VEGF mRNA vs vehicle,VEGF mRNA; 0.1% drops 4 times a day,less VEGF mRNA than retinas from eyes treated with vehicle
same,retinal VEGF mRNA vs vehicle,VEGF mRNA; 0.5% drops 4 times a day,less VEGF mRNA than retinas from eyes treated with vehicle
same,retinal (preretinal) neovascularization vs vehicle,[2]; 0.1% drops 4 times a day,significantly less retinal neovascularization; also recorded: significantly less preretinal NV
same,retinal (preretinal) neovascularization vs vehicle,[2]; 0.5% drops 4 times a day,significantly less retinal neovascularization; also recorded: significantly less preretinal NV
same,inhibition of preretinal neovascularization,"[2]; topical, mouse OIR (FIG. 11)",inhibits preretinal neovascularization
same,"protection against OP (oscillatory potential) delays, ERG","[3]; 0.3% topical, chronic dosing",completely protected
same,inhibition of morphologic vascular changes,"[3]; 9 months of diabetes, STZ-diabetic rat (FIG. 12)",inhibits morphologic vascular changes present at 9 months of diabetes
same,diabetes-induced activation of caspases 3 and 6 in retina,[3]; [5],partially inhibited
same,retinal VEGF or NO levels,[3]; [5],no effect
same,"TUNEL-positive capillary cells, acellular capillaries and pericyte ghosts","[3]; eyedrops 4 times/day, chronic dosing (9 months)",significantly inhibited all of these retinal abnormalities
same,corneal protease activity vs vehicle,"[3]; topical, after 9 months of diabetes",No significant changes
same,OP summed latency (TTP) vs nondiabetic control animals,"[3]; topical, chronic dosing",statistically no different than nondiabetic control animals
same,CNV lesions at Bruch's membrane rupture sites vs vehicle,[1]; 0.03% drops 4 times a day for 14 days,significantly smaller areas of CNV at Bruch's membrane rupture sites than did eyes treated with vehicle
same,CNV lesions at Bruch's membrane rupture sites vs vehicle,"[1]; 0.03% drops 4 times a day for 14 days, listed as nepafanac",significantly smaller than those in eyes treated with vehicle
same,CNV lesions at Bruch's membrane rupture sites vs vehicle,[1]; [4],significantly smaller areas of CNV at Bruch's membrane rupture sites than did eyes treated with vehicle
same,CNV lesions at Bruch's membrane rupture sites vs vehicle,"[1]; 0.1% drops 4 times a day for 14 days, listed as nepafanac",significantly smaller than those in eyes treated with vehicle
same,CNV area vs vehicle,"[1]; 0.1% drops 4 times a day, 2 weeks, first experiment",significantly smaller CNV lesions than treatment with vehicle
same,area of CNV in treated eye compared to vehicle-treated fellow eye,"[1]; 0.1% drops in one eye, vehicle in fellow eye",significantly less
same,CNV area vs vehicle,"[1]; 0.5% drops 4 times a day, 2 weeks",significantly smaller CNV lesions than treatment with vehicle
same,inhibition of laser-induced choroidal neovascularization,"[1]; topical, mouse (FIG. 10)",inhibits laser-induced choroidal neovascularization
B1,patients with improved visual acuity,visual acuity,35-40%
